In ChEMBL document CHEMBL4680158, “C6-O-alkylated 7-deazainosine nucleoside analogues: Discovery of potent and selective anti-sleeping sickness agents” (Eur J Med Chem, 2020):

Assays:
[1] = tested on: Trypanosoma brucei; assay: Antitrypanosomal activity against drug resistant Trypanosoma brucei harboring TbAT1 deficient assessed as reduction in parasite viability incubated for 48 hrs by resazurin dye based fluorescence assay; format: functional, organism-based
[2] = (§1) Inhibition of Trypanosoma brucei P2 transporter assessed as reduction in [3H]-adenosine uptake measured after 60 sec by scintillation counting method
[3] = tested on: Trypanosoma brucei; assay: Antitrypanosomal activity against drug resistant Trypanosoma brucei B48 assessed as reduction in parasite viability incubated for 48 hrs by resazurin dye based fluorescence assay; format: functional, organism-based; details: B48, 48 h
[4] = tested on: Trypanosoma brucei; assay: Antitrypanosomal activity against drug resistant Trypanosoma brucei ISMR1 assessed as reduction in parasite viability incubated for 48 hrs by resazurin dye based fluorescence assay; format: functional, organism-based; details: ISMR1, 48 h
[5] = tested on: Trypanosoma brucei rhodesiense; assay: Antitrypanosomal activity against Trypanosoma brucei rhodesiense assessed as reduction in parasite growth incubated for 3 days by resazurin dye based fluorescence assay; format: functional, organism-based; details: 72 h
[6] = tested on: Trypanosoma brucei brucei; assay: Antitrypanosomal activity against Trypanosoma brucei brucei Lister 427 blood stream forms assessed as reduction in parasite viability incubated for 48 hrs by resazurin dye based fluorescence assay; format: functional, organism-based; details: Lister 427, 48 h
[7] = Selectivity index, ratio of EC50 for cytotoxicity against human MRC5 cells to EC50 for antitrypanosomal activity against Trypanosoma brucei rhodesiense; format: toxicity, cell-based; details: read-out: Ratio EC50
[8] = tested on: MRC5; assay: Cytotoxicity against human MRC5 cells assessed as reduction in cell viability incubated for 3 days by resazurin dye based fluorescence assay; details: MRC5, 72 h
[9] = Resistance factor, ratio of EC50 for antitrypanosomal activity against drug resistant Trypanosoma brucei B48 to antitrypanosomal activity against Trypanosoma brucei brucei Lister 427 blood stream form; format: functional
[10] = tested on: Trypanosoma brucei brucei; assay: Antitrypanosomal activity against Trypanosoma brucei brucei assessed as reduction in parasite growth incubated for 3 days by resazurin dye based fluorescence assay; format: functional, organism-based; details: 72 h
[11] = Resistance factor, ratio of EC50 for antitrypanosomal activity against drug resistant Trypanosoma brucei harboring TbAT1 deficient to antitrypanosomal activity against Trypanosoma brucei brucei Lister 427 blood stream form; format: functional
[12] = Selectivity index, ratio of EC50 for cytotoxicity against human MRC5 cells to EC50 for antitrypanosomal activity against Trypanosoma brucei brucei; format: toxicity, cell-based; details: read-out: Ratio EC50
[13] = Resistance factor, ratio of EC50 for antitrypanosomal activity against drug resistant Trypanosoma brucei ISMR1 to antitrypanosomal activity against Trypanosoma brucei brucei Lister 427 blood stream form; format: functional
[14] = (§2) Inhibition of Trypanosoma brucei P1 transporter assessed as reduction in [3H]-adenosine uptake measured after 60 sec by scintillation counting method
[15] = tested on: Trypanosoma brucei; assay: as §1
[16] = tested on: Trypanosoma brucei; assay: as §2
[17] = Inhibition of Trypanosoma brucei P2 transporter assessed as reduction in [3H]-adenosine uptake by scintillation counting method
[18] = Inhibition of Trypanosoma brucei P1 transporter assessed as reduction in [3H]-adenosine uptake by scintillation counting method

| Compound | EC50 [1] [nM] | Ki [2] [nM] | EC50 [3] [nM] | EC50 [4] [nM] | EC50 [5] [nM] | EC50 [6] [nM] | selectivity ratio [7] | EC50 [8] [nM] | Ratio EC50 [9] | EC50 [10] [nM] | Ratio EC50 [11] | selectivity ratio [12] | Ratio EC50 [13] | Ki [14] [nM] | Km [15] [µM] | Km [16] [µM] | Ki [17] [nM] | Ki [18] [nM] |
| --- | --- | --- | --- | --- | --- | --- | --- | --- | --- | --- | --- | --- | --- | --- | --- | --- | --- | --- |
| CCOc1ncnc2c1c(Cl)cn2[C@@H]1O[C@H](CO)[C@@H](O)[C@H]1O | 113 | 139000 | 134 | 194 | 57 | 79 | > 578 | ≥ 64000 | 1.7 | 120 | 1.43 | > 275 | 2.45 | 99000 |  |  |  |  |
| Nc1ncnc2c1ncn2[C@@H]1O[C@H](CO)[C@@H](O)[C@H]1O |  |  |  |  |  |  |  |  |  |  |  |  |  |  | 0.53 | 0.12 |  |  |
| CC[n+]1c(-c2ccccc2)c2cc(N/N=N/c3cccc(C(=N)N)c3)ccc2c2ccc(N)cc21 |  |  |  |  |  |  |  |  | 0.85 |  | 1.2 |  | 4.8 |  |  |  |  |  |
| Nc1ncnc2c1ccn2[C@@H]1O[C@H](CO)[C@@H](O)[C@H]1O [TUBERCIDIN] |  |  |  |  |  |  |  |  |  |  |  |  |  |  |  |  | 3800 | 78000 |
| N=C(N)c1ccc(OCCCCCOc2ccc(C(=N)N)cc2)cc1 |  |  |  |  |  |  |  |  | 94.6 |  | 1.8 |  | 13.8 |  |  |  |  |  |
| COc1ncnc2c1c(Cl)cn2[C@@H]1O[C@H](CO)[C@@H](O)[C@H]1O | 57 | 149000 | 57 | 84 | 36 | 100 | > 888 | ≥ 32000 | 0.57 | 160 | 0.57 | > 200 | 0.84 | 35500 |  |  |  |  |
| COc1ncnc2c1c(Br)cn2[C@@H]1O[C@H](CO)[C@@H](O)[C@H]1O | 83 |  | 90 | 99 | 36 | 117 | > 1780 | > 64000 | 0.77 | 190 | 0.71 | > 336 | 0.85 |  |  |  |  |  |
| N=C(N)c1ccc(/N=N/Nc2ccc(C(=N)N)cc2)cc1 |  |  |  |  |  |  |  |  | 16.9 |  | 10.6 |  | 6.9 |  |  |  |  |  |
| CC(C)Oc1ncnc2c1c(Cl)cn2[C@@H]1O[C@H](CO)[C@@H](O)[C@H]1O | 198 | 246000 | 188 | 270 | 100 | 184 | > 640 | > 64000 | 1.02 | 90 | 1.08 | > 711 | 1.47 | 284000 |  |  |  |  |
